How the values were obtained:
Assay type in all cases: cell-based, human
[1] = tested on: Peripheral blood mononuclear cells (PBMC); test: Mixed lymphocyte reaction (MLR), [3H]-thymidine incorporation
Description: (§1) Various models may be used for testing an immunosuppressive effect. In vivo, for example, different transplantation models are available. They are strongly influenced by different immunogenicities, depending on the donor and recipient species used and depending on the nature of the transplanted organ. The survival time of transplanted organs can thus be used to measure the suppression of the immune response. In vitro, there exist also various models. The most used are lymphocyte activation tests. Usually activation is measured via lymphocyte proliferation. Inhibition of proliferation thus always means immunosuppression under the experimental conditions applied. There exist different stimuli for lymphocyte activation: • coculture of lymphocytes of […] (MLR=mixed lymphocyte reaction): lymphocytes expressing different minor and major antigens of the HLA-DR type (=allogens) activate each other non-specifically. • CD3 assay: here there is an activation of the T-lymphocytes via an exogenously added antibody (OKT3). This antibody reacts against the CD3 molecule located on the lymphocyte membrane. This molecule has a […]. […] This molecule is also located on the lymphocyte membrane, and delivers strong costimulatory signals. […] Reagents
Mixed Lymphocyte Reaction
Peripheral blood mononuclear cells (PBMC) were isolated from heparinized peripheral blood by density gradient centrifugation over Lymphoprep (Nycomed, Maorstua, Norway). Allogeneic PBMC or EBV-transformed human B cells [RPMI1788 (ATCC name CCL156)] which strongly express B7-1 and B7-2 were used as stimulator calls after irradiation with 30 Gy. MLR was performed in triplicate wells. After 5 days incubation at 37° C., 1 μCi [^3H]-thymidine was added to each cup. After a further 16 hours incubation, cells were harvested and counted in a β-counter.
The percent suppression of proliferation by drugs was counted using the formula: […]

Highly purified T cells [2] = test: T cell proliferation induced by anti-CD3 mAb+PMA (BrdU); details: for IC50: read-out: IC50 aCD3
Description: T cells were purified by removing non-T cells. Briefly, monocytes were removed by cold agglutination. The resulting lymphoid cells were further purified by a cell enrichment immunocolumn [Cellect Human T (Biotex, Edmonton, Alberta, Canada)] by a process of negative selection.
(§2) Measurements of T Cell Proliferations Induced by Anti-CD3 mAB+PMA or Anti-CD28 mAb+PMA
(§3) Highly purified T cells (10^6/ml) were stimulated by immobilized anti-CD3 or anti-CD28 mAb in the presence of PMA. Anti-CD3 mAb (CLB-CD3; CLB, Amsterdam, The Netherlands) were fixed on the 96-microwell plates by incubating the wells with 50 μl of mAb solution […] 50 μl (1/650 dilution in culture medium) was added directly to the wells. Further, 20 μl PMA (Sigma, St. Louis, Mo., USA) solution (final concentration: 0.5 ng/ml) was added. Subsequently, 20 μl of immunosuppressants were added by serial dilution in triplicate wells. Finally 100 μl of the T cell suspension (10^6/ml) was added. After 48-hour incubation at 37° C. in 5% CO2 20 μl BrdU (100 μM solution) (Cell Proliferation Elisa, Boehringer-Mannheim Belgium) was added to each well. After a further overnight incubation the T cell proliferation was measured using a calorimetric immunoassay for qualification of cell proliferation based on measurements of the incorporation of BrdU during DNA synthesis. The optical density (OD) was measured by a Behring EL311 place reader at 450 nm (reference wavelength: […]). The percent suppression of proliferation by drugs was counted using the formula: […]

Highly purified T cells [3] = test: T cell proliferation induced by anti-CD28 mAb+PMA (BrdU); details: anti-CD28 mAb+PMA pathway, read-out: IC50 aCD28
Description: as §1
T cells were purified by removing non-T cells. Briefly, monocytes were removed by cold agglutination. The resulting lymphoid cells were further purified by a cell enrichment immunocolumn [Cellect Human T (Biotex, Edmonton, Alberta, Canada)] by a process of negative selection. More than 95% of the B cells were removed with this procedure. After depletion, the resulting T cell preparation was highly purified explaining these cells could not be activated by PHA or rIL-2 alone at concentrations capable of stimulating RBMC prior to deletion.
as §2, §3

[4] = lowest concentration giving 50% suppression of the MLR
[5] = Homo sapiens, PBMC, lowest concentration giving 50% suppression of the MLR
[6] = Homo sapiens, T-cell, anti-CD3 mAb+PMA pathway

| Compound | IC50 [1, 4] [µM] | IC50 (Highly purified T cells [2]; anti-CD3 mAb+PMA pathway) [µM] | IC50 (Highly purified T cells [3]) [µM] | other results |
| --- | --- | --- | --- | --- |
| 1,3,7-trimethyl-8-(4-trifluoromethylfenyl)-xanthine [Compound 10] | 50 | 20 | 30 | – |
| 1,3,7-tripropyl-8-(4-chlorofenyl)xanthine [Compound 118] | 15 | 15 | 20 | – |
| 1,3,7-tripropyl-8-fenylxanthine [Compound 113] | 20 | 110 | 90 | – |
| 1,3-dimethyl-7-allyl-8-[(4-trifluoromethyl)-fenyl]xanthine [Compound 82] | 25 | 80 | 80 | – |
| 1,3-dimethyl-7-propyl-8-fenylxanthine [Compound 112] | 20 | 45 | 40 | – |
| 1,3-dipropyl-2-thio-8-[4-((((N-2-aminoethyl)-amino)carbonyl)methyl)oxy)fenyl]xanthine [Compound 35] | 50 | 50 | 70 | – |
| 1,3-dipropyl-8-[4(dimethylamino(ethyl(amino-(sulfonyl))))fenyl]xanthine [Compound 9] | 25 | 40 | 50 | – |
| 1,3-dipropyl-8-[4-dimethylamino(propyl(amino-(sulfonyl))))fenyl]xanthine [Compound 40] | 25 | 60 | 70 | – |
| 1,7-diallyl-3-methyl-8-fenylxanthine [Compound 8] | 30 | 35 | 80 | – |
| 1,7-diallyl-3-propyl-8-(4-chlorofenyl)xanthine [Compound 119] | 15 | 50 | 30 | – |
| 1,7-diallyl-3-propyl-8-fenylxanthine [Compound 114] | 15 | 85 | 70 | – |
| CC#Cn1c(=O)c2c(ncn2C)n(C)c1=O [Compound 1, 1-propynyl-3,7-dimethylxanthine] | – | – | – | IC50 [1, 5]: > 200 µM; IC50 (Highly purified T cells [2]; [6]): 150 µM; IC50 (Highly purified T cells [3]; Homo sapiens, T-cell): > 200 µM |
| C#CCn1cnc2c1c(=O)n(C)c(=O)n2CC#C [Compound 3, 1-methyl-3,7-dipropynylxanthine] | 150 | 150 | 100 | – |
| CCCn1c(=O)c2[nH]c(-c3ccsc3)nc2n(CCC)c1=O [Compound 15] | – | > 200 | 170 | – |
| Cn1c(=S)c2[nH]c(C3CCCC3)nc2n(C)c1=O [Compound 17] | 80 | 30 | 40 | – |
| Cn1cnc2c1c(=O)n(CCCC(=O)O)c(=O)n2C [Compound 23, 1-(3-carboxypropyl)-3,7-dimethylxanthine] | – | – | – | IC50 [1, 5]: > 200 µM; IC50 (Highly purified T cells [2]; [6]): > 200 µM; IC50 (Highly purified T cells [3]; Homo sapiens, T-cell): > 200 µM |
| CCOC(=O)CCCn1c(=O)c2c(ncn2C)n(C)c1=O [Compound 24, 1-(3-ethoxycarbonyl)propyl-3,7-dimethylxanthine] | > 200 | 170 | 150 | – |
| CC(O)CCCCn1c(=O)c2c(ncn2C)n(C)c1=O (stereo not shown) [Compound 25] | > 200 | 140 | 160 | – |
| CCCn1cnc2c1c(=O)n(CCCCC(C)O)c(=O)n2C (stereo not shown) [Compound 26] | 100 | 100 | 100 | – |
| CCCn1c(=O)c2[nH]c(-c3ccc(OCC(=O)O)cc3)nc2n(CCC)c1=S [Compound 28] | 120 | 150 | 75 | – |
| CCCn1c(=O)c2[nH]c(-c3ccc(OCC(=O)OCC)cc3)nc2n(CCC)c1=S [Compound 29] | > 200 | 150 | 130 | – |

| Compound | IC50 [1, 4] [µM] | IC50 (Highly purified T cells [2]; anti-CD3 mAb+PMA pathway) [µM] | IC50 (Highly purified T cells [3]) [µM] | other results |
| --- | --- | --- | --- | --- |
| Cn1c(-c2ccc(S(N)(=O)=O)cc2)nc2c1c(=O)[nH]c(=O)n2C [Compound 37] | > 200 | 150 | 150 | – |
| CCCn1c(=O)c2[nH]c(-c3ccc(C(F)(F)F)cc3)nc2n(CCC)c1=O [Compound 48] | 180 | 160 | 150 | – |
| Cn1c(=O)c2[nH]c(-c3ccco3)nc2n(C)c1=O [Compound 58] | > 200 | 160 | 170 | – |
| CCCn1c(=O)c2[nH]c(-c3ccco3)nc2n(CCC)c1=O [Compound 59] | 15 | 155 | 135 | – |
| Cn1c(=O)c2[nH]c(-c3ccco3)nc2n(C)c1=S [Compound 60] | > 200 | – | 190 | – |
| CCCn1c(=O)c2[nH]c(-c3ccco3)nc2n(CCC)c1=S [Compound 61] | 100 | 170 | 110 | – |
| Cn1c(=O)c2[nH]c(C3CCCC3)nc2n(C)c1=O [Compound 62] | > 200 | > 200 | 190 | – |
| CCCn1c(=O)c2[nH]c(C3CCCC3)nc2n(CCC)c1=O [Compound 63] | > 200 | 135 | 100 | – |
| Cn1c(=O)c2[nH]c(C3CCCC3)nc2n(C)c1=S [Compound 64] | > 200 | > 200 | > 200 | – |
| CCCn1c(=O)c2[nH]c(C3CCCC3)nc2n(CCC)c1=S [Compound 65] | > 200 | 135 | 75 | – |
| Cn1c(=O)c2c(nc(C3CCCC3)n2C)n(C)c1=S [Compound 66] | > 200 | 170 | 170 | – |
| C#CCn1c(=O)n(C)c(=O)c2c1ncn2C [Compound 67, 1,7-dimethyl-3-propynylxanthine] | > 200 | > 200 | – | – |
| Cn1c(=O)c2[nH]cnc2n(CC(C)(C)C)c1=O [Compound 69] | 120 | 110 | 45 | – |
| Cn1cnc2c1c(=O)[nH]c(=O)n2CC(C)(C)C [Compound 70] | > 200 | 180 | 140 | – |
| CC(C)n1c(=O)n(C)c(=O)c2[nH]cnc21 [Compound 71] | 160 | – | – | – |
| Cn1c(-c2ccc(C(F)(F)F)cc2)nc2c1c(=O)[nH]c(=O)n2C [Compound 83] | > 200 | > 200 | 150 | – |
| Cn1c(=O)c2[nH]c(-c3ccc(-c4ccccc4)cc3)nc2n(C)c1=O [Compound 115] | 110 | > 200 | 160 | – |
| CCCn1c(=O)c2c(nc(-c3ccc(-c4ccccc4)cc3)n2CCC)n(CCC)c1=O [Compound 116, 1,3,7-tripropyl-8-(p-bifenyl)xanthine] | 160 | 45 | 40 | – |
| C=CCn1c(=O)c2c(nc(-c3ccc(-c4ccccc4)cc3)n2CC=C)n(CCC)c1=O [Compound 117, 1,7-diallyl-3-propyl-8-(p-bifenyl)xanthine] | 15 | 30 | 30 | – |
| Cn1c(=O)c2[nH]c(-c3ccc(S(N)(=O)=O)cc3)nc2n(C)c1=O [Compound 125] | 160 | 150 | 90 | – |
| C=CC[C@@H]1/C=C(\C)C[C@H](C)C[C@H](OC)[C@H]2O[C@@](O)(C(=O)C(=O)N3CCCC[C@H]3C(=O)O[C@H](/C(C)=C/[C@@H]3CC[C@@H](O)[C@H](OC)C3)[C@H](C)[C@@H](O)CC1=O)[C@H](C)C[C@@H]2OC [FK506, reference compound] | – | – | – | IC50 ([1]; Homo sapiens, PBMC, immunosuppressants for comparison): 0.001 µM; IC50 (Highly purified T cells [2]; Homo sapiens, T-cell, immunosuppressants for comparison, anti-CD3 mAb+PMA): 0.001 µM; activity in the anti-CD3+PMA test (Highly purified T cells [2]; in words): active |
